Source: paper PMC12487869, “Toward Imaging of the GABA Transporter Type 1 In Vivo: Quantitative Evaluation of 4 Novel PET Radiotracers in Nonhuman Primates” (Journal of Nuclear Medicine, 2025)

Columns and labels:
[1] = Plasma free fraction (fp), ultrafiltration method; assay type: in vitro ADME, rhesus monkeys (Macaca mulatta); details: measured in triplicate per scan, mean ± SD
Protocol: The plasma free fraction (fp) for each scan was measured in triplicate using the ultrafiltration method and calculated as the ratio of radioactivity in the filtrate to that in the plasma ([24]).

[2] = Metabolite analysis of arterial plasma (unmetabolized parent fraction), column-switching HPLC; assay type: in vivo, rhesus monkeys (Macaca mulatta); details: mean ± SD
Protocol: Arterial blood samples were collected for each scan to measure the input function. Metabolite analysis was performed using an automatic column-switching high-performance liquid chromatography system ([22]) for 7 arterial blood samples collected at 5, 15, 30, 60, 90, 120, and 180 min. The radiometabolite-corrected arterial plasma input function was obtained by calculating the product of the fitted total plasma (fitted with a sum of exponentials) and unmetabolized parent fraction curves (using an integrated γ-function ([23])).

[3] = molecular target: T1, GAT-1 (Macaca mulatta, UniProt H9ELS5); test: PET brain imaging with kinetic modeling (1TCM), baseline and tiagabine blocking scans; assay type: in vivo, rhesus monkeys (Macaca mulatta); details: for Median VT across ROIs: 1TCM
T1 construct: from tissue; host or cells: brain of living rhesus monkeys (in vivo PET)
Protocol: Twenty scans were acquired from 4 rhesus monkeys (Macaca mulatta). Each monkey underwent baseline and blocking scans with ^18F-GATT-31, ^18F-GATT-34, ^18F-GATT-39, or ^18F-GATT-44 (Fig. 1) on a Focus-220 small-animal PET scanner (Siemens Healthineers).
(§1) Before each scan, each monkey was sedated with alfaxalone (2 mg/kg), midazolam (0.3 mg/kg), and dexmedetomidine (0.01 mg/kg), and anesthesia was maintained with 1.5%–2.5% isoflurane. Heart rate, blood pressure, respiration rate, and oxygen saturation were monitored continuously. An intravenous line was placed in the saphenous or cephalic vein for delivery of the radiotracer, as well as tiagabine during blocking studies (0.5 mg/kg administered 19 ± 4 min before radiotracer injections). A catheter was placed in the radial or tibial artery for blood sampling.
Before injection, a transmission scan was acquired. Starting with injection of the radiotracer, PET emission data were acquired in list-mode format and binned into 45 frames (6 × 30 s, 3 × 1 min, 2 × 2 min, and 34 × 5 min).
For region-of-interest (ROI) definition, each PET image was registered to an in-house rhesus monkey anatomical MRI template using the concatenation of a rigid-body transformation between the summed PET image (0–10 min) and corresponding monkey’s MRI (using the FMRIB Linear Image Registration Tool) and a nonlinear transformation matrix estimated between the monkey’s MRI and the MRI template (BioImage Suite software version 3.01). Regional time–activity curves were extracted for the following 11 ROIs: brain stem, caudate, cerebellum, cingulate cortex, frontal cortex, hippocampus, insula, occipital cortex, putamen, temporal cortex, and thalamus.
For each baseline and blocking scan, kinetic analysis was performed using a 1-tissue compartment model (1TCM), a reversible 2-tissue compartment model (2TCM; k4 > 0), and an irreversible 2-tissue compartment model (2TiCM; k4 = 0), including a blood volume fraction (Vb) term and a time-delay term. Vb was estimated for each time–activity curve using the whole-blood curve fitted with a sum of exponentials. The time delay (Δt) between the input function and the brain was estimated by fitting the first 10 min of the whole-brain time–activity curve to a 1TCM with 3 parameters: K1, Vb, and Δt (k2 was set to 0 because of the negligible radiotracer washout during the first 10 min). This estimated time delay value was then used in the time–activity curve fits. The primary parameters of interest were the influx constant (K1, expressed in microliters per minute per cubic centimeter, since values were low), the volume of distribution (VT, expressed in milliliters per cubic centimeter), and the net influx constant (Ki, expressed in milliliters per minute per cubic centimeter) for 2TiCM.

[4] = molecular target: T1, GAT-1; test: Occupancy plots from baseline and tiagabine blocking PET scans (occupancy, VND, BPND); assay type: in vivo, rhesus monkeys (Macaca mulatta); parameters: key to BPND: BPND = VT/VND − 1 (dimensionless); details: for VND: occupancy plot; for Occupancy: tiagabine 0.5 mg/kg occupancy measured with this radiotracer
Protocol: as §1
(§2) Occupancy plots ([26]) were used to estimate tiagabine occupancy and the nondisplaceable volume of distribution (VND). This VND value was used to compute the nondisplaceable binding potential (BPND = VT/VND − 1). To compare the performance between 2 radiotracers, a Guo plot ([27]) was created, using baseline VT values, to assess the relative affinity and BPND values of each radiotracer.

[5] = molecular target: T1, GAT-1; test: Guo plot comparing baseline VT of two radiotracers (relative affinity and BPND); assay type: in vivo, rhesus monkeys (Macaca mulatta)
Description: as §2

T1 sequence (H9ELS5 1-599): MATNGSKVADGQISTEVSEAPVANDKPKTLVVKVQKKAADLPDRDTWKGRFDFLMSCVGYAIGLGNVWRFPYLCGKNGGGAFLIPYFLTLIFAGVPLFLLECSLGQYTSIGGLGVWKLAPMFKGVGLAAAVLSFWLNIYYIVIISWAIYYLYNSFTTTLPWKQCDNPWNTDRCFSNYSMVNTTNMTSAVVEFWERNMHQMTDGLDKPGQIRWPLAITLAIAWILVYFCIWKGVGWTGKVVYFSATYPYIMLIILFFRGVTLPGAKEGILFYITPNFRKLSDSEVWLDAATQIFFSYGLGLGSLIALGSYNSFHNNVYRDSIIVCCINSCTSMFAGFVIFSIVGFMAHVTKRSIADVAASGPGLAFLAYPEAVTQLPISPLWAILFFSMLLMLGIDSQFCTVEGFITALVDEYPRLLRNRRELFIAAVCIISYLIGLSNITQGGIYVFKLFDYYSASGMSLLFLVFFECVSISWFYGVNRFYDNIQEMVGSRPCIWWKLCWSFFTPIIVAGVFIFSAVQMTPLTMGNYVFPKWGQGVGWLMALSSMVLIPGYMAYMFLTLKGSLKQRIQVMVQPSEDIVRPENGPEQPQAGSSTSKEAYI

Free fraction [1]: 13.5 ± 1.4% | Parent compound ([2]; 30 min): 88 ± 4% | Parent compound ([2]; 90 min): 83 ± 6% | Median VT across ROIs ([3]; after blocking with tiagabine 0.5 mg/kg): 1.7 mL/cm^3 | Median VT across ROIs ([3]; baseline): 3.5 mL/cm^3 | VT ([3]; Average of ROIs, baseline, 3 monkeys, mean ± SD): 3.40 ± 0.52 mL/cm^3 | VT ([3]; Average of ROIs, blocking (tiagabine 0.5 mg/kg), 3 monkeys, mean ± SD): 1.66 ± 0.11 mL/cm^3 | VT ([3]; Brain stem, baseline, averaged across 3 monkeys, mean ± SD): 2.61 ± 0.42 mL/cm^3 | VT ([3]; Brain stem, blocking (tiagabine 0.5 mg/kg), 3 monkeys, mean ± SD): 1.45 ± 0.20 mL/cm^3 | VT ([3]; Caudate nucleus, baseline, 3 monkeys, mean ± SD): 2.25 ± 0.13 mL/cm^3 | VT ([3]; Caudate nucleus, blocking (tiagabine 0.5 mg/kg), 3 monkeys, mean ± SD): 1.27 ± 0.11 mL/cm^3 | VT ([3]; Cerebellum, baseline, 3 monkeys, mean ± SD): 3.36 ± 0.39 mL/cm^3 | VT ([3]; Cerebellum, blocking (tiagabine 0.5 mg/kg), 3 monkeys, mean ± SD): 1.60 ± 0.13 mL/cm^3 | VT ([3]; Cingulate cortex, baseline, 3 monkeys, mean ± SD): 4.30 ± 0.39 mL/cm^3 | VT ([3]; Cingulate cortex, blocking (tiagabine 0.5 mg/kg), 3 monkeys, mean ± SD): 2.16 ± 0.18 mL/cm^3 | VT ([3]; Frontal cortex, baseline, 3 monkeys, mean ± SD): 3.73 ± 0.46 mL/cm^3 | VT ([3]; Frontal cortex, blocking (tiagabine 0.5 mg/kg), 3 monkeys, mean ± SD): 1.79 ± 0.04 mL/cm^3 | VT ([3]; Hippocampus, baseline, 3 monkeys, mean ± SD): 2.98 ± 1.10 mL/cm^3 | VT ([3]; Hippocampus, blocking (tiagabine 0.5 mg/kg), 3 monkeys, mean ± SD): 1.44 ± 0.07 mL/cm^3 | VT ([3]; Insula, baseline, 3 monkeys, mean ± SD): 4.46 ± 0.67 mL/cm^3 | VT ([3]; Insula, blocking (tiagabine 0.5 mg/kg), 3 monkeys, mean ± SD): 1.97 ± 0.07 mL/cm^3 | VT ([3]; Occipital cortex, baseline, 3 monkeys, mean ± SD): 4.55 ± 0.74 mL/cm^3 | VT ([3]; Occipital cortex, blocking (tiagabine 0.5 mg/kg), 3 monkeys, mean ± SD): 2.04 ± 0.11 mL/cm^3 | VT ([3]; Putamen, baseline, 3 monkeys, mean ± SD): 2.71 ± 0.05 mL/cm^3 | VT ([3]; Putamen, blocking (tiagabine 0.5 mg/kg), 3 monkeys, mean ± SD): 1.44 ± 0.12 mL/cm^3 | VT ([3]; Temporal cortex, baseline, 3 monkeys, mean ± SD): 4.48 ± 1.24 mL/cm^3 | VT ([3]; Temporal cortex, blocking (tiagabine 0.5 mg/kg), 3 monkeys, mean ± SD): 1.93 ± 0.05 mL/cm^3 | VT ([3]; Thalamus, baseline, 3 monkeys, mean ± SD): 1.96 ± 0.10 mL/cm^3 | VT ([3]; Thalamus, blocking (tiagabine 0.5 mg/kg), 3 monkeys, mean ± SD): 1.19 ± 0.17 mL/cm^3 | Radiotracer clearance time (half-life = ln(2)/k2) ([3]; brain, baseline): 175 ± 42 min | Blood volume fraction (Vb) ([3]; mean ± SD, n = 66 (11 ROIs × 6 scans)): 0.036 ± 0.013 mL/cm^3 | Overall spatial correlation (r) of regional distribution with ^11C-flumazenil ([3]; nonhuman primates, P < 0.01, previously acquired ^11C-flumazenil data): 0.87 | BPND ([4]; Average of ROIs, baseline): 2.88 ± 0.59 | BPND ([4]; Average of ROIs, blocking): 0.90 ± 0.13 | BPND ([4]; Brain stem, baseline, BPND = VT/VND – 1 with averaged VND): 1.98 ± 0.48 | BPND ([4]; Brain stem, blocking, BPND = VT/VND – 1 with averaged VND): 0.66 ± 0.23 | BPND ([4]; Caudate nucleus, baseline): 1.57 ± 0.15 | BPND ([4]; Caudate nucleus, blocking): 0.45 ± 0.12 | BPND ([4]; Cerebellum, baseline): 2.84 ± 0.44 | BPND ([4]; Cerebellum, blocking): 0.83 ± 0.15 | BPND ([4]; Cingulate cortex, baseline): 3.91 ± 0.44 | BPND ([4]; Cingulate cortex, blocking): 1.46 ± 0.20 | BPND ([4]; Frontal cortex, baseline): 3.26 ± 0.52 | BPND ([4]; Frontal cortex, blocking): 1.04 ± 0.04 | BPND ([4]; Hippocampus, baseline): 2.40 ± 1.25 | BPND ([4]; Hippocampus, blocking): 0.64 ± 0.08 | BPND ([4]; Insula, baseline): 4.08 ± 0.76 | BPND ([4]; Insula, blocking): 1.25 ± 0.08 | BPND ([4]; Occipital cortex, baseline): 4.19 ± 0.84 | BPND ([4]; Occipital cortex, blocking): 1.32 ± 0.13 | BPND ([4]; Putamen, baseline): 2.09 ± 0.06 | BPND ([4]; Putamen, blocking): 0.64 ± 0.14 | BPND ([4]; Temporal cortex, baseline): 4.10 ± 1.41 | BPND ([4]; Temporal cortex, blocking): 1.20 ± 0.05 | BPND ([4]; Thalamus, baseline): 1.24 ± 0.11 | BPND ([4]; Thalamus, blocking): 0.36 ± 0.20 | VND ([4]; monkey 1): 1.03 mL/cm^3 | VND ([4]; monkey 2): 0.96 mL/cm^3 | VND ([4]; monkey 3): 0.64 mL/cm^3 | VND, mean ± SD across monkeys ([4]; occupancy plots, 3 monkeys, average rSE of 16%): 0.88 ± 0.21 mL/cm^3 | Occupancy ([4]; monkey 1): 65% | Occupancy ([4]; monkey 2): 70% | Occupancy ([4]; monkey 3): 71% | Occupancy (overall) ([4]; tiagabine blocking): 69% | KD ratio (KD^GATT-31/KD^GATT-44) ([5]; Guo plot slope using measured fp values): 1.06 | BPND predicted higher than for ^18F-GATT-31 ([5]; Guo plot y-intercept, baseline VT): approximately 17%
Compound: Cc1ccccc1C(=CCCN1CCCC(C(=O)O)C1)c1ccccc1[18F] (stereo not drawn) [^18F-GATT-44]
